The text below walks through data of patent US11878980B2, “Solid forms of TTK inhibitor” (UNIVERSITY HEALTH NETWORK, priority 2016, dated 2024).

Broadly, the Cmax is the highest concentration seen after dosing.

Counter-ions that a name gives are not always drawn. Bounds are passed on as bounds.

Data set [1] can be described thus: Solubility (Solubilitymax, pHmax) of crystalline forms. It counts as physicochemical.
Data set [2] in a line: Pharmacokinetic analysis after single oral powder-in-capsule dose, rat plasma by LC/MS. Format: in vivo, Sprague-Dawley rats. The note with it: for AUC0-last / Cmax: Rat, PO, 5 mg/kg; for plasma concentrations relative to free base compound (I) (in words): Sprague Dawley rats, oral. Here is the method: (§1) A single oral, powder-in-capsule dose of each form was administered to three (n=3) female Sprague-Dawley rats and three male beagle dogs (n=3) at 5 mg active pharmaceutical ingredient per kg body weight. The plasma was then analyzed for compound plasma levels by LC/MS.
(§2) Compound was milled using a mortar and pestle and was carefully dispensed into a gelatin capsule, tared on an analytical balance. Loading continued until the desired compound mass was achieved. Size 9 capsules were used for rat dosing and size 3 capsules were used for dogs. Note: compound load was corrected for the bioequivalence ratio of each form.
(§3) Following oral dosing, blood was drawn from the lateral saphenous vein into lithium heparin coated tubes (rats) or K2EDTA coated tubes (dogs), at designated time points. Plasma was collected and stored frozen at −80° C. until analysis.
Plasma samples (20 μL) and spiked plasma standard samples were diluted five-fold with ice cold acetonitrile containing 100 ng/mL verapamil as internal standard. Samples and standards were filtered through 0.22 μm membranes in a 96-well format. Filtrates were then diluted with water to 30% acetonitrile.
10 μL of each sample and standard was injected onto a Waters Acquity CSH 1.7 μm 2.1×100 mm column at 0.6 mL/min by an Acquity UPLC. The C18 column was equilibrated at 5% acetonitrile in water. Compounds were eluted with a gradient to 99% acetonitrile. All mobile phases contained 0.1% (v/v) formic acid.
Column eluent was analyzed by an electrospray ionization tandem quadrupole mass spectrometry system (ESI-MS/MS, a Waters Xevo TQ). Eluent composition was analyzed for three ion-pairs specific for the internal standard and three ion-pairs specific for the analyte. Experimental samples were compared with standard curve samples to determine compound concentrations. Pharmacokinetic parameters were determined using the Excel plug-in “PKfit”.

A short description of data set [3]: Pharmacokinetic analysis after single oral powder-in-capsule dose, dog plasma by LC/MS. It counts as in vivo, beagle dogs. The note with it: for AUC0-last / Cmax: Dog, PO, 5 mg/kg; for plasma concentrations relative to free base compound (I) (in words): beagle dogs, oral. Here is the method:
as §1, §2, §3
Plasma samples (20 μL) and spiked plasma standard samples were diluted eleven fold with ice cold acetonitrile containing 40 ng/mL Diclofenac as internal standard. The mixture was vortexed for 2 min and centrifuged. The 0.5 μL supernatant was injected into a Waters Acquity BEH 1.7 μm 2.1×50 mm column at 0.6 mL/min by an Acquity UPLC. The column was equilibrated with 10% methanol in water. Compounds were eluted with a gradient to 95% methanol. Mobile phases contained 0.025% (v/v) formic acid and 1 mM NH4OAc.
Column eluent was analyzed by an electrospray ionization tandem quadrupole mass spectrometry system (ESI-MS/MS, an API-6500). Eluent composition was analyzed for one ion-pairs specific for the internal standard and one ion-pairs specific for the analyte. Experimental samples were compared with standard curve samples to determine compound concentrations. Pharmacokinetic parameters were determined using WinNonlin Professional 6.2.

Data set [4] in a line: Hygroscopicity (water sorption at 90% RH). It counts as physicochemical.

With `Cc1cc(-c2cnn3c(NC[C@H]4C[C@@](C)(O)C4)cc(Oc4cccnc4)nc23)ccc1C(=O)NC1CC1` [Compound I-monohydrate], the Solubilitymax in data set [1] was <1 µg/mL.

As for `Cc1cc(-c2cnn3c(NC[C@H]4C[C@@](C)(O)C4)cc(Oc4cccnc4)nc23)ccc1C(=O)NC1CC1` [Compound (I) hydrobromide], in data set [2], the AUC0-last is 1640 ng·h/mL, the maximum concentration (Cmax) came to 260 ng/mL and the “plasma concentrations relative to free base compound (I) (in words)” value is given as “increased plasma concentrations”. In data set [3], the AUC0-last turned out to be 2760 ng·h/mL, the peak concentration (Cmax) worked out at 570 ng/mL and the “plasma concentrations relative to free base compound (I) (in words)” value was “increased plasma concentrations”. Besides, in data set [4], the “Hygroscopicity (water sorption at 90% RH)” value is 2.3%. In data set [1], this compound gave a Solubilitymax of 630 µg/mL and a pHmax of 0.79.

For the compound `Cc1cc(-c2cnn3c(NC[C@H]4C[C@@](C)(O)C4)cc(Oc4cccnc4)nc23)ccc1C(=O)NC1CC1` [Compound (I) bisphosphate hemihydrate], in data set [2], the AUC0-last worked out at 2100 ng·h/mL, the Cmax amounted to 1120 ng/mL and the “plasma concentrations relative to free base compound (I) (in words)” value is “increased plasma concentrations”. Moreover, in data set [3], the AUC0-last came out at 4000 ng·h/mL, the Cmax was found to be 830 ng/mL and the “plasma concentrations relative to free base compound (I) (in words)” value is recorded as “increased plasma concentrations”. Further, the “Hygroscopicity (water sorption at 90% RH)” value in data set [4] was 3.9%. Further, in data set [1], the Solubilitymax worked out at 100 µg/mL and the pHmax was <1.14.

In the case of `Cc1cc(-c2cnn3c(NC[C@H]4C[C@@](C)(O)C4)cc(Oc4cccnc4)nc23)ccc1C(=O)NC1CC1` [Compound (I), N-cyclopropyl-4-(7-((((1s,3s)-3-hydroxy-3-methylcyclobutyl)methyl)amino)-5-(pyridin-3-yloxy)pyrazolo[1,5-a]pyrimidin-3-yl)-2-methylbenzamide], the values for the AUC0-last in data set [2] and in data set [3] were 140 ng·h/mL and 40 ng·h/mL, respectively. Also, the maximum concentration (Cmax) in data set [2] was 11 ng/mL; in data set [3], 8 ng/mL. Also, the “Hygroscopicity (water sorption at 90% RH)” value in data set [4] came to 0.8%. Besides, in data set [1], the Solubilitymax was <1 µg/mL.
